Read-outs that look alike come from different tables or passages of the source.

We go through 29 compounds from patent publication US12528790B2, “Amide derivative having antiviral activity” (Shionogi & Co., Ltd., priority 2020, dated 2026).

For experiment [1], the system named is RSV B (Wash/18537 strain). The experiment in a line: In vitro CPE (CytoPathic Effect) inhibition effect evaluation test, RSV type B. The class given is cell-based. The conditions noted are these: inhibitory effect against RSV type B, CPE inhibition, read-out: EC50. An outline of the steps: (§1)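 EC50 is the concentration giving 50% inhibition of virus-induced cytopathic effect, fitted by nonlinear regression from CellTiter-Glo 2.0 viability. Compounds in 3-fold series were co-incubated at 37 °C with HEp-2 cells and RSV: A2 strain for 4 days, B (Wash/18537) for 5 days; uninfected wells served as control.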
In general terms: Damage to the host cells serves as the signal in cytopathic effect assays.

The next experiment deals with RSV A2 strain. The experiment in a line: In vitro CPE (CytoPathic Effect) inhibition effect evaluation test, RSV type A. The class given is cell-based. The conditions noted are these: inhibitory effect against RSV type A (RSV A2 strain), HEp-2 cells, CPE inhibition, read-out: EC50. An outline of the steps: as §1
[2] abbreviates: human respiratory syncytial virus.

By EC50 is commonly meant the concentration needed to bring the measured effect to its halfway point. Regarding `O=C(NC1(C(=O)O)C2CC3CC(C2)CC1C3)c1cnc(N2CC3(CCCCC3)c3cc(OC4CCN(c5cnccn5)CC4)ccc32)nc1C(F)(F)F` (stereo not shown) [Compound I-523], the EC50 (in experiment [1] (setting [2]); in the experiment on RSV A2 strain (setting [2])) was less than 10 nM each time.
`O=C(NC1(C(=O)O)C2CC3CC(C2)CC1C3)c1cnc(N2CC3(CCCCC3)c3cc(O[C@H]4CCN(c5ncc(F)cn5)C4)ccc32)nc1C(F)(F)F` (stereo partly shown) [Compound I-524]: the EC50 is 100 to 5000 nM in experiment [1] (setting [2]) and less than 10 nM in the experiment with RSV A2 strain (setting [2]).
The like results for `O=C(NC1(C(=O)O)C2CC3CC(C2)CC1C3)c1cnc(N2CC3(CCCCC3)c3cc(O[C@@H]4CCN(c5ncc(F)cn5)C4)ccc32)nc1C(F)(F)F` (stereo partly shown) [Compound I-525] were, in that order, less than 10 nM and less than 10 nM.
For `CC(F)(F)c1nc(N2CC3(CCOCC3)c3cc(OC4CCN(CC(F)(F)F)CC4)ncc32)ncc1C(=O)NC1(C(=O)O)C2CC3CC(C2)CC1C3` (stereo not shown) [Compound I-526], in that order: less than 10 nM and less than 10 nM.
On to `CC(F)(F)c1nc(N2CC3(CCOCC3)c3cc(OC4CCC5(CC4)COC5)ccc32)ncc1C(=O)NC1(C(=O)O)C2CC3CC(C2)CC1C3` (stereo not shown) [Compound I-527], for which the EC50 (in experiment [1] (setting [2]); with RSV A2 strain (setting [2])) was less than 10 nM each time.
As to `CC(F)(F)c1nc(N2CC3(CCOCC3)c3cc(OC4CCN(CC#N)CC4)ccc32)ncc1C(=O)NC1(C(=O)O)C2CC3CC(C2)CC1C3` (stereo not shown) [Compound I-528], the EC50 was 100 to 5000 nM in experiment [1] (setting [2]) and less than 10 nM in the experiment with RSV A2 strain (setting [2]).
On to `CC(F)(F)c1nc(N2CC3(CCOCC3)c3cc(OC4CCN(CCC(F)(F)F)CC4)ccc32)ncc1C(=O)NC1(C(=O)O)C2CC3CC(C2)CC1C3` (stereo not shown) [Compound I-529], for which the EC50 (in experiment [1] (setting [2]); with RSV A2 strain (setting [2])) was less than 10 nM in each case.
For the compound `CC(F)(F)c1nc(-c2cn(C3CC3)c3cc(O[C@H]4CC[C@H](N5CC(F)(F)C5)CC4)ccc23)ncc1C(=O)NC1(C(=O)O)C2CC3CC(C2)CC1C3` (stereo partly shown) [Compound I-530], the EC50 (in experiment [1] (setting [2]); with RSV A2 strain (setting [2])) was less than 10 nM each time.
Regarding `O=C(NC1(C(=O)O)C2CC3CC(C2)CC1C3)c1cnc(-c2cn(C3CC4(CC4)C3)c3cc(O[C@H]4CC[C@H](N5CC(F)(F)C5)CC4)ccc23)nc1C(F)(F)F` (stereo partly shown) [Compound I-531], the EC50 (in experiment [1] (setting [2]); in the experiment on RSV A2 strain (setting [2])) was less than 10 nM each time.
As for `CC(F)(F)c1nc(N2CC3(CCOCC3)c3cc(OC4CCN(CC5COC5)CC4)ccc32)ncc1C(=O)NC1(C(=O)O)C2CC3CC(C2)CC1C3` (stereo not shown) [Compound I-532], the EC50 was 10 to 100 nM in experiment [1] (setting [2]) and less than 10 nM in the experiment with RSV A2 strain (setting [2]).
The like results for `CC(F)(F)c1nc(N2CC3(CCOCC3)c3cc(OC4CCN(CC5CC(F)(F)C5)CC4)ccc32)ncc1C(=O)NC1(C(=O)O)C2CC3CC(C2)CC1C3` (stereo not shown) [Compound I-533] were, in that order, less than 10 nM and less than 10 nM.
For `Cc1nnc(N2CCC(Oc3ccc4c(c3)C3(CCCCC3)CN4c3ncc(C(=O)NC4(C(=O)O)C5CC6CC(C5)CC4C6)c(C(F)(F)F)n3)CC2)o1` (stereo not shown) [Compound I-534], the EC50 (in experiment [1] (setting [2]); in the experiment on RSV A2 strain (setting [2])) was less than 10 nM in each case.
`CC(F)(F)c1nc(N2CC3(CCCCC3)c3cc(OC4CCN(c5nnc(C(F)(F)F)s5)CC4)ccc32)ncc1C(=O)NC1(C(=O)O)C2CC3CC(C2)CC1C3` (stereo not shown) [Compound I-535]: the EC50 in experiment [1] (setting [2]) is 10 to 100 nM; in the experiment with RSV A2 strain (setting [2]), less than 10 nM.
Consider `CC(F)(F)c1nc(N2CC3(CCCCC3)c3cc(OC4CCN(c5nc(C(F)(F)F)ns5)CC4)ccc32)ncc1C(=O)NC1(C(=O)O)C2CC3CC(C2)CC1C3` (stereo not shown) [Compound I-536], for which the values for the EC50 (in experiment [1] (setting [2]); in the experiment with RSV A2 strain (setting [2])) were 10 to 100 nM and less than 10 nM, respectively.
With `COc1cnc(N2CCC(Oc3ccc4c(c3)C3(CCCCC3)CN4c3ncc(C(=O)NC4(C(=O)O)C5CC6CC(C5)CC4C6)c(C(F)(F)F)n3)CC2)cn1` (stereo not shown) [Compound I-537], the EC50 in experiment [1] (setting [2]) was 10 to 100 nM; in the experiment on RSV A2 strain (setting [2]) it was less than 10 nM.
For the compound `CC(F)(F)c1nc(N2CC3(CCOCC3)c3cc(OC4CCC(N5CCC(F)(F)C5)CC4)ccc32)ncc1C(=O)NC1(C(=O)O)C2CC3CC(C2)CC1C3` (stereo not shown) [Compound I-538], the EC50 (in experiment [1]; in the experiment with RSV A2 strain) was less than 10 nM in each case.
Take `CC(F)(F)c1nc(N2CC3(CCCCC3)c3cc(OC4CCC(N5CCC(F)(F)C5)CC4)ccc32)ncc1C(=O)NC1(C(=O)O)C2CC3CC(C2)CC1C3` (stereo not shown) [Compound I-539]: the results for the EC50 (in experiment [1]; with RSV A2 strain) were 10 to 100 nM and less than 10 nM, respectively.
Take `CC(F)(F)c1nc(N2CC3(CCCCC3)c3cc(OC4CCC(N5CCC(F)(F)C5)CC4)ccc32)ncc1C(=O)NC1(C(=O)O)C2CC3CC(C2)CC1C3` (stereo not shown) [Compound I-540]: the EC50 in experiment [1] is 10 to 100 nM; with RSV A2 strain, less than 10 nM.
`CC(F)(F)c1nc(N2CC3(CCOCC3)c3cc(OC4CCC(N5CCC(F)(F)C5)CC4)ccc32)ncc1C(=O)NC1(C(=O)O)C2CC3CC(C2)CC1C3` (stereo not shown) [Compound I-541]: the EC50 (in experiment [1]; in the experiment on RSV A2 strain) was less than 10 nM in each case.
Take `CC(F)(F)c1nc(N2CC3(CCOCC3)c3cc(OC4CN(c5ncc(F)cn5)C4)ccc32)ncc1C(=O)NC1(C(=O)O)C2CC3CC(C2)CC1C3` (stereo not shown) [Compound I-542]: the EC50 (in experiment [1] (setting [2]); in the experiment with RSV A2 strain (setting [2])) was less than 10 nM in each case.
`O=C(NC1(C(=O)O)C2CC3CC(C2)CC1C3)c1cnc(-c2cn(C3CC3)c3cc(O[C@H]4CC[C@@H](N5CC(F)(F)C5)CC4)ccc23)nc1C(F)(F)F` (stereo partly shown) [Compound I-543]: the EC50 (in experiment [1] (setting [2]); in the experiment on RSV A2 strain (setting [2])) was less than 10 nM each time.
Consider `CC(F)(F)CN1CCC(Oc2ccc3c(-c4ncc(C(=O)NC5(C(=O)O)C6CC7CC(C6)CC5C7)c(C(F)(F)F)n4)cn(C4CC4)c3c2)CC1` (stereo not shown) [Compound I-544], for which the EC50 in experiment [1] (setting [2]) is 10 to 100 nM; in the experiment on RSV A2 strain (setting [2]), less than 10 nM.
`O=C(NC1(C(=O)O)C2CC3CC(C2)CC1C3)c1cnc(-c2cn(C3CCC(F)(F)CC3)c3cc(O[C@H]4CC[C@H](N5CC(F)(F)C5)CC4)ccc23)nc1C(F)(F)F` (stereo partly shown) [Compound I-545]: the EC50 (in experiment [1] (setting [2]); in the experiment with RSV A2 strain (setting [2])) was less than 10 nM throughout.
Take `CC(F)(F)c1nc(-c2cn(C3CCC(F)(F)CC3)c3cc(O[C@H]4CC[C@@H](N5CC(F)(F)C5)CC4)ccc23)ncc1C(=O)NC1(C(=O)O)C2CC3CC(C2)CC1C3` (stereo partly shown) [Compound I-546]: the EC50 (in experiment [1] (setting [2]); in the experiment with RSV A2 strain (setting [2])) was less than 10 nM in each case.
Turning to `CC(F)(F)c1nc(-c2cn(C3CCOCC3)c3cc(O[C@H]4CC[C@@H](N5CC(F)(F)C5)CC4)ccc23)ncc1C(=O)NC1(C(=O)O)C2CC3CC(C2)CC1C3` (stereo partly shown) [Compound I-547], the EC50 (in experiment [1] (setting [2]); in the experiment with RSV A2 strain (setting [2])) was less than 10 nM in each case.
Regarding `CC(F)(F)CN1CCC(Oc2ccc3c(c2)C2(CCOCC2)CN3c2ncc(C(=O)NC3(C(=O)O)C4CC5CC(C4)CC3C5)c(C(C)(F)F)n2)CC1` (stereo not shown) [Compound I-548], the EC50 (in experiment [1] (setting [2]); in the experiment on RSV A2 strain (setting [2])) was less than 10 nM in each case.
As for `CC(F)(F)c1nc(N2CC3(CCOCC3)c3cc(OC4CCC5(CC4)CN(CC(F)(F)F)C5)ccc32)ncc1C(=O)NC1(C(=O)O)C2CC3CC(C2)CC1C3` (stereo not shown) [Compound I-549], the EC50 (in experiment [1] (setting [2]); in the experiment with RSV A2 strain (setting [2])) was less than 10 nM throughout.
As for `CC(F)(F)c1nc(N2CC3(CCCCC3)c3cc(OC4CCC5(CC4)CN(CC(F)(F)F)C5)ccc32)ncc1C(=O)NC1(C(=O)O)C2CC3CC(C2)CC1C3` (stereo not shown) [Compound I-550], the EC50 in experiment [1] (setting [2]) was 10 to 100 nM; in the experiment on RSV A2 strain (setting [2]) it was less than 10 nM.
In the case of `CC(F)(F)c1nc(N2CC3(CCOCC3)c3cc(OC4CCN(C5CC(F)(F)C5)CC4)ccc32)ncc1C(=O)NC1(C(=O)O)C2CC3CC(C2)CC1C3` (stereo not shown) [Compound I-551], the half-maximal effective concentration (EC50) (in experiment [1] (setting [2]); with RSV A2 strain (setting [2])) was less than 10 nM each time.
